Read-outs that look alike come from different tables or passages of the source.
Legend:
[1] = test system: IL3000 T. congolense (drug sensitive) strain; test: In vitro Alamar Blue 72 h drug sensitivity assay for T. congolense; format: cell-based, Trypanosoma congolense; conditions: bloodstream form, 69 h + 3 h Resazurin, 34° C., read-out: IC50: I Org. Growth T. congolense 3 d
Experimental: Example 252. In Vitro Alamar Blue 72 h Drug Sensitivity Assay for T. congolense
Compounds were tested in vitro for chemotherapeutic potency against the IL3000 T. congolense (drug sensitive) strain, using the Alamar Blue assay with several modifications. Test compounds were prepared as 10 mg/mL DMSO stocks for each assay run. Compounds were assayed in at least three separate, independent test runs and an 11-point dilution curve was used to determine the IC50 values. Bloodstream form trypanosomes were supported in HMI media containing 20% bovine serum and were incubated with test compounds for 69 h at 34° C. in a humidified atmosphere containing 5% CO2. Thereafter, 10 μL of Resazurin dye (12.5 mg in 100 mL of phosphate buffered saline, Sigma-Aldrich, Buchs, Switzerland) were added for an additional 3 h. Plates were then read using a fluorescent plate reader (Spectramax, Gemini XS, Bucher Biotec, Basel, Switzerland) using an excitation wavelength of 536 nm and an emission wavelength of 588 nm. Data points were averaged to generate sigmoidal dose-response curves and IC50 values were determined using Softmax Pro 5.2 software.

[2] = test system: T. cruzi amastigote (Td Tomato-modified) in Vero cells; test: In vitro IC50 measurement of T. cruzi amastigote killing using Td Tomato-modified T. cruzi; format: cell-based; conditions: Trypanosoma cruzi, 72 h, fluorescence, read-out: IC50: I Org. amastigote Growth T. cruzi 3 d
Experimental: Example 254. In Vitro IC50 Measurement of T. cruzi Amastigote Killing Using Td Tomato-Modified T. cruzi
The T. cruzi parasites used in this assay were genetically modified to express Td Tomato fluorescent protein. Vero cells (African green monkey kidney epithelial cells) were harvested from continuous cultures using trypsin and added to the inner 60 wells of 96-well Greiner Bio One plates (plate catalog #655090) at 200 ul/well of […]. Cells were allowed to adhere for 1 h before infection with T. cruzi. T. cruzi for infection were harvested from previously-infected Vero cells, washed, pelleted and resuspended at 5×10^6/mL. 50 uL of parasites were added to each well containing Vero cells. Compounds were prepared from 5 mM stock concentrations in DMSO to final concentrations in wells ranging from 5 uM to 5 nM. Wells were provided for negative controls, lacking compounds. Plates were placed into a 37° C. incubator for 20 min, then a “Day 0” reading was taken on a Synergy H4 plate reader to record initial fluorescence levels, at 544 (excitation) and 612 nm (emission). 96-well plates were placed in Tupperware containers with wet paper towels and incubated at 37° C. incubator for 72 h. After 72 h plates were reread (Day 3 reading) and data analyzed using Excel and/or Graphpad software. Day 0 fluorescence was subtracted from Day 3 to remove input parasite fluorescence. Growth curves are generated and 50% and 90% inhibitory concentrations are determined by nonlinear regression analysis.

SMILES	IC50 ([1]; Trypanosoma congolense, 72 h)	IC50 [2]	also measured
Cc1cccc(C)c1OC(=O)[C@H](C)NC(=O)c1ccc2c(c1)B(O)OC2 [Example 6-001, 2,6-Dimethylphenyl (1-hydroxy-1,3-dihydrobenzo[c][1,2]oxaborole-6-carbonyl)-L-alaninate]	0.01 to 5 µM	–	–
O=C(CNC(=O)c1ccc2c(c1)B(O)OC2)OCc1ccccc1 [Example 6-004, Benzyl (1-hydroxy-1,3-dihydrobenzo[c][1,2]oxaborole-6-carbonyl)glycinate]	0.01 to 5 µM	–	–
NC(=O)CC[C@H](NC(=O)c1ccc2c(c1)B(O)OC2)C(=O)OCc1ccccc1 [Example 6-011, Benzyl (1-hydroxy-1,3-dihydrobenzo[c][1,2]oxaborole-6-carbonyl)-L-glutaminate]	0.01 to 5 µM	–	–
O=C(OCc1ccccc1)[C@@H]1CCCN1C(=O)c1ccc2c(c1)B(O)OC2 [Example 6-012, Benzyl (1-hydroxy-1,3-dihydrobenzo[c][1,2]oxaborole-6-carbonyl)-L-prolinate]	0.01 to 5 µM	–	–
CC(C)(NC(=O)c1ccc2c(c1)B(O)OC2)C(=O)OCc1ccccc1 [Example 6-013, Benzyl 2-(1-hydroxy-1,3-dihydrobenzo[c][1,2]oxaborole-6-carboxamido)-2-methylpropanoate]	0.01 to 5 µM	–	–
Cc1cccc(C)c1COC(=O)[C@H](C)NC(=O)c1ccc2c(c1)B(O)OC2 [Example 6-014, 2,6-Dimethylbenzyl (1-hydroxy-1,3-dihydrobenzo[c][1,2]oxaborole-6-carbonyl)-L-alaninate]	0.01 to 5 µM	–	–
C[C@H](NC(=O)c1ccc2c(c1)B(O)OC2)C(=O)OC(C)(C)c1ccccc1 [Example 6-015, 2-Phenylpropan-2-yl (1-hydroxy-1,3-dihydrobenzo[c][1,2]oxaborole-6-carbonyl)-L-alaninate]	0.01 to 5 µM	–	–
COC(=O)[C@H](CCCc1ccccc1)NC(=O)c1ccc2c(c1)B(O)OC2 [Example 6-028, Methyl (S)-2-(1-hydroxy-1,3-dihydrobenzo[c][1,2]oxaborole-6-carboxamido)-5-phenylpentanoate]	0.01 to 5 µM	–	–
COC(=O)[C@@H](CCCc1ccccc1)NC(=O)c1ccc2c(c1)B(O)OC2 [Example 6-029, Methyl (R)-2-(1-hydroxy-1,3-dihydrobenzo[c][1,2]oxaborole-6-carboxamido)-5-phenylpentanoate]	0.01 to 5 µM	–	–
CC(C)[C@H](NC(=O)c1ccc2c(c1)B(O)OC2(C)C)C(=O)OCc1ccc(F)cc1F [Example 6-034, 2,4-Difluorobenzyl (1-hydroxy-3,3-dimethyl-1,3-dihydrobenzo[c][1,2]oxaborole-6-carbonyl)-L-valinate]	0.01 to 5 µM	–	–
CC(C)[C@H](NC(=O)c1ccc2c(c1F)B(O)OC2)C(=O)OCc1ccc(F)cc1F [Example 6-037, 2,4-Difluorobenzyl (7-fluoro-1-hydroxy-1,3-dihydrobenzo[c][1,2]oxaborole-6-carbonyl)-L-valinate]	0.01 to 5 µM	–	–
Cc1c(C(=O)NC2(C(=O)OCc3ccc(F)cc3)CC2)ccc2c1B(O)OC2 [Example 6-068, 4-Fluorobenzyl 1-(1-hydroxy-7-methyl-1,3-dihydrobenzo[c][1,2]oxaborole-6-carboxamido)cyclopropane-1-carboxylate]	–	0.021 to 0.999 µM	–
CC(C)[C@H](NC(=O)c1ccc2c(c1C(F)F)B(O)OC2)C(=O)OCc1ccccc1 [Example 6-079, Benzyl (7-(difluoromethyl)-1-hydroxy-1,3-dihydrobenzo[c][1,2]oxaborole-6-carbonyl)-L-valinate]	–	0.021 to 0.999 µM	–
Cc1c(C(=O)N[C@H](C(=O)OCc2ccc([S+]([O-])C(C)C)cc2)C(C)C)ccc2c1B(O)OC2 (stereo partly drawn) [Example 6-089, 4-(Isopropylsulfinyl)benzyl (1-hydroxy-7-methyl-1,3-dihydrobenzo[c][1,2]oxaborole-6-carbonyl)-L-valinate]	–	0.021 to 0.999 µM	–
Cc1c(C(=O)N[C@H](C(=O)OCCN2CCN(C)CC2)C(C)C)ccc2c1B(O)OC2 [Example 6-096, 2-(4-Methylpiperazin-1-yl)ethyl (1-hydroxy-7-methyl-1,3-dihydrobenzo[c][1,2]oxaborole-6-carbonyl)-L-valinate]	–	≥ 1 µM	–
Cc1c(C(=O)N[C@H](C(=O)OCc2ccc(C(=O)N3CCN(C)CC3)cc2)C(C)C)ccc2c1B(O)OC2 [Example 6-105, 4-(4-Methylpiperazine-1-carbonyl)benzyl (1-hydroxy-7-methyl-1,3-dihydrobenzo[c][1,2]oxaborole-6-carbonyl)-L-valinate]	–	0.021 to 0.999 µM	–
Cc1c(C(=O)N[C@H](C(=O)OCc2ccc(C(=O)N(C)CCN(C)C)cc2)C(C)C)ccc2c1B(O)OC2 [Example 6-106, 4-((2-(Dimethylamino)ethyl)(methyl)carbamoyl)benzyl (1-hydroxy-7-methyl-1,3-dihydrobenzo[c][1,2]oxaborole-6-carbonyl)-L-valinate]	–	≥ 1 µM	–
Cc1c(C(=O)N[C@H](C(=O)OCc2ccc(S(N)(=O)=O)cc2)C(C)C)ccc2c1B(O)OC2 [Example 6-108, 4-Sulfamoylbenzyl (1-hydroxy-7-methyl-1,3-dihydrobenzo[c][1,2]oxaborole-6-carbonyl)-L-valinate]	–	≥ 1 µM	–
Cc1c(C(=O)N[C@H](C(=O)OCC2CCCC2)C(C)C)ccc2c1B(O)OC2 [Example 6-115, Cyclopentylmethyl (1-hydroxy-7-methyl-1,3-dihydrobenzo[c][1,2]oxaborole-6-carbonyl)-L-valinate]	–	≤ 0.02 µM	–
Cc1c(C(=O)N[C@H](C(=O)OCC(C)C)C(C)C)ccc2c1B(O)OC2 [Example 6-116, Isobutyl (1-hydroxy-7-methyl-1,3-dihydrobenzo[c][1,2]oxaborole-6-carbonyl)-L-valinate]	–	≤ 0.02 µM	–
Cc1c(C(=O)N[C@H](C(=O)OCc2ccc3ncccc3c2)C(C)C)ccc2c1B(O)OC2 [Example 6-127, Quinolin-6-ylmethyl (1-hydroxy-7-methyl-1,3-dihydrobenzo[c][1,2]oxaborole-6-carbonyl)-L-valinate]	–	0.021 to 0.999 µM	–
Cc1cc2c(cc1C(=O)N[C@H](C(=O)OCc1ccc(F)cc1)C(C)C)B(O)OC2 [Example 6-129, 4-Fluorobenzyl (1-hydroxy-5-methyl-1,3-dihydrobenzo[c][1,2]oxaborole-6-carbonyl)-L-valinate]	–	0.021 to 0.999 µM	–
Cc1c(C(=O)N[C@H](C(=O)OC[C@H](O)CO)C(C)C)ccc2c1B(O)OC2 [Example 6-147, (R)-2,3-dihydroxypropyl (1-hydroxy-7-methyl-1,3-dihydrobenzo[c][1,2]oxaborole-6-carbonyl)-L-valinate]	–	≥ 1 µM	–
Cc1c(C(=O)N[C@H](C(=O)OC2COCCOC2)C(C)C)ccc2c1B(O)OC2 [Example 6-162, 1,4-dioxepan-6-yl (1-hydroxy-7-methyl-1,3-dihydrobenzo[c][1,2]oxaborole-6-carbonyl)-L-valinate]	0.00051 to 0.00999 µM	–	–
Cc1c(C(=O)N[C@H](C(=O)OCc2ccc(OCCN3CCCC3)cc2)C(C)C)ccc2c1B(O)OC2 [Example 6-163, 4-(2-(Pyrrolidin-1-yl)ethoxy)benzyl (1-hydroxy-7-methyl-1,3-dihydrobenzo[c][1,2]oxaborole-6-carbonyl)-L-valinate]	< 0.0005 µM	–	–
C[C@@H](NC(=O)c1ccc2c(c1)B(O)OC2)C(=O)OCc1ccccc1 [Example 6-175, Benzyl (1-hydroxy-1,3-dihydrobenzo[c][1,2]oxaborole-6-carbonyl)-D-alaninate]	0.01 to 5 µM	–	–
COC(=O)[C@@H](NC(=O)c1ccc2c(c1)B(O)OC2)C(C)C [Example 6-179, Methyl (1-hydroxy-1,3-dihydrobenzo[c][1,2]oxaborole-6-carbonyl)-L-valinate]	0.01 to 5 µM	–	–
COC(=O)[C@H](Cc1ccccc1)NC(=O)c1ccc2c(c1)B(O)OC2 [Example 6-181, Methyl (1-hydroxy-1,3-dihydrobenzo[c][1,2]oxaborole-6-carbonyl)-L-phenylalaninate]	–	–	IC50 [1]: 0.01 to 5 µM
COC(=O)[C@H](Cc1c[nH]c2ccccc12)NC(=O)c1ccc2c(c1)B(O)OC2 [Example 6-183, Methyl (1-hydroxy-1,3-dihydrobenzo[c][1,2]oxaborole-6-carbonyl)-L-tryptophanate]	0.01 to 5 µM	–	–
COC(=O)[C@H](CC1CC1)NC(=O)c1ccc2c(c1)B(O)OC2 [Example 6-184, Methyl (S)-3-cyclopropyl-2-(1-hydroxy-1,3-dihydrobenzo[c][1,2]oxaborole-6-carboxamido)propanoate]	0.01 to 5 µM	–	–

— patent publication US11578087B2, “Oxaborole esters and uses thereof” (priority 2016, dated 2023)
